The record followed here is BindingDB's records for doi:10.1021/jm00364a029 (1983).

The pKi is the Ki on a negative log10 scale, so that one unit is a factor of ten. A lower pKi goes with a high Ki.

For assay [1], the target named is cGMP-specific 3',5'-cyclic phosphodiesterase (Homo sapiens, UniProt O76074). Put plainly: ChEBML_217497. As for the experimental part:
Inhibition of human lung high-affinity cGMP phosphodiesterases (0.5-2 uM/L)

Assay [2] deals with cGMP-dependent 3',5'-cyclic phosphodiesterase (Homo sapiens, UniProt O00408). Put plainly: ChEBML_217498. How it is done:
Inhibition of human lung low-affinity cGMP phosphodiesterases (10-50 uM/L)

pKi: −log10 of the molar value.

Chain of cGMP-dependent 3',5'-cyclic phosphodiesterase (O00408 whole entry): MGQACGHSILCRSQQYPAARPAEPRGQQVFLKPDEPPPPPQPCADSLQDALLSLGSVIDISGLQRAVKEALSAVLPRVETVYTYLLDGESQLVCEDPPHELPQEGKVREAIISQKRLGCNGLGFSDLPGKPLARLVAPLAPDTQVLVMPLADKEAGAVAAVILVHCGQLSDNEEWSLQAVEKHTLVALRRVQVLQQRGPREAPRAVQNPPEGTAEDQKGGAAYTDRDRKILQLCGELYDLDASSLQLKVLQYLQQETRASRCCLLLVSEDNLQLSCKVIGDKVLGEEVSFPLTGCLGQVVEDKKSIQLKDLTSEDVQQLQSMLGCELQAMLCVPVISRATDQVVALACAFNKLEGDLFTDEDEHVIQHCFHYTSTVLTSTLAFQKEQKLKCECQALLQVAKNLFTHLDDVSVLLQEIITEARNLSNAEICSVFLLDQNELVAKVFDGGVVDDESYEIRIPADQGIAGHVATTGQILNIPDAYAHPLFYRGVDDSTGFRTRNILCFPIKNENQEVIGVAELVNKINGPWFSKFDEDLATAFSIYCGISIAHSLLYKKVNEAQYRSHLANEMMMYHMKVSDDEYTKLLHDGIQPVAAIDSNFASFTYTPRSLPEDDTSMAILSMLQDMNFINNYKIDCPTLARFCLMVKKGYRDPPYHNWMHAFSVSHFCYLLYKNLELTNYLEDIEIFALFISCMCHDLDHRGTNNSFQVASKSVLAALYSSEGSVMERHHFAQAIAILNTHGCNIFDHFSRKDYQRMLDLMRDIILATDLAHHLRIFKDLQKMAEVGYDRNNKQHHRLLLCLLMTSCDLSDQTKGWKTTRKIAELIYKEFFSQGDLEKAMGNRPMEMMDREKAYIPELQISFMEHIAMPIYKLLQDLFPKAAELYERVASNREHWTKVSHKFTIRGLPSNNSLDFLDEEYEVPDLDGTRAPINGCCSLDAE

For `C[C@H](O)Cn1cnc2c1c(=O)n(C)c(=O)n2C` [(S)-7-(2-hydroxypropyl)-1,3-dimethyl-1H-purine-2,6(3H,7H)-dione], the pKi in assay [1] is 3.22; in assay [2], 3.15.
Taken in the same sequence, the figures for `CC(O)Cn1cnc2c1c(=O)n(C)c(=O)n2C` (stereo unspecified) [7-(2-Hydroxy-propyl)-1,3-dimethyl-3,7-dihydro-purine-2,6-dione(Proxyphylline)] were 3.22 and 3.22.
`C[C@@H](O)Cn1cnc2c1c(=O)n(C)c(=O)n2C` [(R)-7-(2-hydroxypropyl)-1,3-dimethyl-1H-purine-2,6(3H,7H)-dione]: the negative-log Ki (pKi) in assay [1] and in assay [2] was 3.22 each time.
